The values below come from patent US6608032B1, “Medicinal compositions” (Takara Shuzo Co., Ltd., priority 1999, dated 2003).

One assay relates to HL-60 cells. Nature of the assay: Proliferation of HL-60 cells with or without hydroxyurea G1 arrest, WST-1. It is filed as cell-based. The note with it: read-out: IC50 (concentration at which 50% of the proliferation is inhibited). The protocol: HL-60 cells (ATCC CCL-240) were suspended in RPMI 1640 medium (Bio Whittaker, 12-702F) containing 10% fetal calf serum (Gibco) and […] at a concentration of 5×10^5 cells/ml. 20 ml of the suspension was added to a 10-cm Petri dish. The dish was incubated at 37° C. overnight in the presence of 5% CO2 to make the cells arrest at G1 phase. The cells were collected by centrifugation and resuspended in RPMI 1640 medium containing 10% fetal calf serum (Gibco) and 100 μM hydroxyurea at a concentration of 5×10^5 cells/ml. 5 ml of the suspension was added to each well of a 6-well microtiter plate. On the other hand, as cells without the treatment with hydroxyurea, HL-60 cells were suspended in RPMI 1640 medium containing 10% fetal calf serum (Gibco) at a concentration of 1×10^5 cells/ml. 5 ml of the suspension was added to each well of a 6-well microtiter plate. 50 μl of a solution containing agarobiose at a concentration of 80, 60, 40 or 20 mM in water, or 50 μl of a solution containing the agarohexaose at a concentration of 80, 60, 40 or 20 mM in water was added to the well containing the cells treated with hydroxyurea. 50 μl of a solution containing agarobiose at a concentration of 40, 30, 20 or 10 mM in water, or 50 μl of a solution containing agarohexaose at a concentration of 40, 30, 20 or 10 mM in water was added to the well containing the cells without the treatment with hydroxyurea. The plate was incubated for additional 48 hours. Cells collected by centrifuging the culture were suspended in 5 ml of fresh RPMI 1640 medium containing 10% fetal calf serum (Gibco). 100 μl of the suspension was used for measuring the viable cell number using Premix WST-1 Cell Proliferation Assay System (Takara Shuzo, MK400).

A further assay concerns cyclooxygenase 2 protein. Briefly: LPS-induced cyclooxygenase 2 protein expression in RAW264.7 cells (Western blot). The format is cell-based. The note with it: 50 μl of 10 mM solution per 5 ml, added 0 or 6 hours before LPS. The protocol:
(1) RAW264.7 cells (ATCC TIB 71) were suspended in Dulbecco's modified Eagle's medium (Bio Whittaker, 12-604F) containing 10% fetal calf serum (Gibco) at a concentration of 3×10^5 cells/ml. 5 ml of the suspension was added to each well of a 6-well microtiter plate and the plate was incubated at 37° C. overnight in the presence of 5% CO2. 50 μl of a solution containing agarobiose or agarohexaose at a concentration of 10 mM in water was added to the well. The plate was incubated for 0 or 6 hours. 50 μl of a solution containing lipopolysaccharide (LPS, Sigma, L-2012) at a concentration of 100 μg/ml in water was added to the well. The plate was incubated for additional 12 hours. The cells were recovered by detaching the cells from the plate using a scraper and suspended in phosphate buffered saline containing 1 μg/ml pepstatin A (Sigma, P5318), 1 μg/ml leupeptin (Sigma, L2884), 1 mM phenylmethylsulfonyl fluoride (Nacalai Tesque, 273-27), 10 mM ethylenediaminetetraacetic acid disodium salt and 0.1% Triton X-100. A supernatant obtained by centrifuging the suspension after freezing and thawing was used as a protein fraction. The content of protein in the protein fraction was determined using Micro BCA Protein Assay Reagent (a product of Pierce sold by Takara Shuzo, P7411). […]

Where two headings read alike, the source gives them in different places.

As to `OC[C@H]1O[C@@H](O[C@H]2[C@H]3OC[C@@H]2OC(O)[C@H]3O)[C@H](O)[C@@H](O)[C@H]1O` (mixture of isomers) [Agarobiose, agarobiose], the IC50 with HL-60 cells (Cells treated with hydroxyurea (arrested at G1 phase), 48 hours) amounted to 401 µM; in the assay on HL-60 cells (Cells without treatment with hydroxyurea, 48 hours) it was 211 µM. Further, the “increase in cyclooxygenase 2 protein expression induced by LPS” value in the assay with cyclooxygenase 2 protein is listed as “not suppressed”.

Turning to `OCC1OC(OC2C3COC2C(O)C(OC2C(O)C(CO)OC(OC4C5COC4C(O)C(OC4C(O)C(CO)OC(OC6C7COC6C(O)C(O)O7)C4O)O5)C2O)O3)C(O)C(O)C1O` (stereo not drawn) [Agarohexaose, agarohexaose], the IC50 came to 383 µM in the assay with HL-60 cells (Homo sapiens, HL-60, 48 h, Cells treated with hydroxyurea (arrested at G1 phase)) and 205 µM in the assay with HL-60 cells (Homo sapiens, HL-60, 48 h, Cells without treatment with hydroxyurea). In addition, the “increase in cyclooxygenase 2 protein expression induced by LPS” value in the assay on cyclooxygenase 2 protein was “not suppressed”.
